Measured values published in ChEMBL document CHEMBL3301448, “MMV Malaria Box screening against Toxoplasma gondii and Entamoeba histolytica”.

Each compound was assayed on Entamoeba histolytica (assay: MMV: Primary screening was performed with each compound at a 30 uM final concentration and in triplicate in sealed 96-well polystyrene microtiter plates. Parasite inocula (100 ul) comprising 20000 parasites/ml were added to each well and grown at 37 degrees C in a humidified atmosphere of 5% CO2 for 72 h. Positive controls consisted of metronidazole at 1 mg/ml. The growth of E. histolytica trophozoites in each well was determined microscopically by measuring the diameters of the confluent cells in drug-containing wells relative to those in the nega- tive-control wells.). Settings: not given.
Assay type: functional, organism-based

| SMILES | IC50 |
| --- | --- |
| O=C(Nc1ccc(Cl)c(Cl)c1)Nc1ccc(Cl)c(Cl)c1 | > 30 µM |
| COc1ccc(Nc2nc(N/N=C/c3ccc(O)cc3)nc(Nc3ccc([N+](=O)[O-])cc3)n2)cc1 | > 30 µM |
| N=c1n(CCN2CCCCC2)c2ccccc2n1CC(=O)c1ccc(Cl)c(Cl)c1 | > 30 µM |
| Nc1nc(Nc2cccc(F)c2)nc2ccccc12 | > 30 µM |
| COc1ccc(-c2nc(N3CCN(C(=O)C4CCCCC4)CC3)c3c4c(sc3n2)CCCC4)cc1 | > 30 µM |
| O=C(NC1CCN(Cc2ccccc2)CC1)c1cc2nc(-c3ccc(Cl)s3)cc(C(F)(F)F)n2n1 | > 30 µM |
| Cc1sc(NC(=O)c2ccccc2)c(C(c2cccs2)N2CCN(c3ccccc3)CC2)c1C (stereo not drawn) | > 30 µM |
| Cc1sc(NC(=O)c2ccco2)c(C(c2cccnc2)N2CCC(Cc3ccccc3)CC2)c1C (stereo not drawn) | > 30 µM |
| COc1cc(C(=O)Nc2nc3c(cc4c5c(cccc53)CC4)s2)cc(OC)c1OC | > 30 µM |
| COc1ccc(CCN2C(=O)c3[nH]nc(-c4cc(Cl)c(C)cc4O)c3C2c2ccccc2F)cc1 (stereo not drawn) | > 30 µM |
| O=C(NNc1cc(N2CCCC2)nc(N2CCCC2)n1)c1ccccc1 | > 30 µM |
| COC(=O)c1ccc(Cl)c2c1C1C=CCC1C(c1cccc3ccccc13)N2 (stereo not drawn) | > 30 µM |
| O=C(CCc1ccccc1)c1ccccc1OCC(O)CN1CCCCC1 (stereo not drawn) | > 30 µM |
| OC1=C2C(=Nc3ccccc3SC2c2ccccc2)c2ccccc21 (stereo not drawn) | > 30 µM |
| COc1cc(C(=O)Nc2ccc(-c3nc4ccccc4[nH]3)cc2)cc(OC)c1OC | > 30 µM |
| CCOc1ccc(N2C(N)=NC(N)=NC2(C)C)cc1 | > 30 µM |
| COc1cccc(Nc2nc(N)c3ccccc3n2)c1 | > 30 µM |
| COC(=O)c1ccc(C2C3=C(O)CC(c4ccc(F)cc4)CC3=Nc3ccccc3N2C(=O)c2ccccc2)cc1 (stereo not drawn) | > 30 µM |
| O=C(CCl)NCCOc1ccc(Cl)cc1Cl | > 30 µM |
| Oc1ccc(-c2nc(-c3ccc4oc5ccc(-c6[nH]c(-c7ccc(O)cc7)nc6-c6ccccc6)cc5c4c3)c(-c3ccccc3)[nH]2)cc1 | > 30 µM |
| CCOc1ccc(CN2CCN(CC(O)COc3ccc(OCC(O)CN4CCN(Cc5ccc(OCC)cc5)CC4)cc3)CC2)cc1 (stereo not drawn) | > 30 µM |
| CCCCNc1nc(NC(C)(C)C)nc(NC(C)(C)C)n1 | > 30 µM |
| COc1ccc(CCn2c(=N)c(C(=O)NCc3cccnc3)cc3c(=O)n4cccc(C)c4nc32)cc1 | > 30 µM |
| CC(=O)c1sc(NC(=O)Nc2ccc(C)cc2C)nc1C | > 30 µM |
| Cn1c(C(=O)c2cccc3ccccc23)nc2ccccc21 | > 30 µM |
| COc1ccc(Nc2cc(C)nc(NCc3ccccc3)n2)cc1 | > 30 µM |
| Oc1ccc2ccccc2c1CNc1nc2ccccc2[nH]1 | > 30 µM |

| SMILES | IC50 |
| --- | --- |
| O=C(Nc1ccc(-c2nc3ccccc3[nH]2)cc1)c1ccc(Cl)c(Cl)c1 | > 30 µM |
| O=C1c2ccc3c4c(ccc(c24)C(=O)N1CCCCO)C(=O)N(CCCCO)C3=O | > 30 µM |
| OCCNc1nc(Nc2ccc(Cl)c(Cl)c2)nc2ccccc12 | > 30 µM |
| Nc1ccc(-c2nc3cc(Oc4ccc(Oc5ccc6[nH]c(-c7ccc(N)cc7)nc6c5)cc4)ccc3[nH]2)cc1 | > 30 µM |
| CCOC(=O)c1cnc2ccc(OC)cc2c1Nc1ccc(N2CCN(C)CC2)cc1 | > 30 µM |
| Cc1cc(N(C)C)nc(Nc2ccc(NC(=O)Nc3ccccc3)cc2)n1 | > 30 µM |
| COc1ccc(C(=O)C(CCC(CNC(C)(C)C)C(=O)c2ccc(OC)cc2)CNC(C)(C)C)cc1 (stereo not drawn) | > 30 µM |
| COc1cc(C(=O)ON=C(N)Cc2cccc3ccccc23)cc(OC)c1OC | > 30 µM |
| CN1C=C(c2ccc3ccccc3n2)C(c2c[nH]c3ccccc23)c2ccccc21 (stereo not drawn) | > 30 µM |
| Oc1c(C(Nc2ccccn2)c2cccc(Oc3ccccc3)c2)ccc2cccnc12 (stereo not drawn) | > 30 µM |
| COc1cc(-c2nc(-c3ccccc3)c(-c3ccccc3)[nH]2)cc(OC)c1O | > 30 µM |
| Cc1ccc(Nc2nc(N)c3ccccc3n2)cc1Cl | > 30 µM |
| OC(CNC1CCCCC1)Cn1c2ccc(I)cc2c2cc(I)ccc21 (stereo not drawn) | > 30 µM |
| CCc1ccc(CNCC(O)c2ccccc2)cc1 (stereo not drawn) | > 30 µM |
| CCn1c2c(c(=N)c3c1CCC3)CCCC2 | > 30 µM |
| COc1cc(CNCCc2ccc(Cl)cc2)cc(OC)c1O | > 30 µM |
| Cc1ccc2c(C)nc(Nc3nc(C)cc(-c4ccccc4)n3)nc2c1 | > 30 µM |
| CCOc1ccc(Nc2ccnc3cc(Cl)ccc23)cc1 | > 30 µM |
| Oc1ccc(Br)cc1CN1CCN(Cc2ccc(Cl)cc2)CC1 | > 30 µM |
| Cc1ccc(C)c(-c2csc(Nc3ccc(C)c(C)c3)n2)c1 | > 30 µM |
| CCOC(=O)c1cnc2ccc(OC)cc2c1NCc1ccccc1 | > 30 µM |
| CCCn1c(=N)c(C(=O)NC2CCCCC2)cc2c(=O)n3cccc(C)c3nc21 | > 30 µM |
| CC(C)(C)c1ccc(C2CC3=Nc4ccccc4N(C(=O)c4ccccc4Cl)C(c4ccc(F)cc4)C3=C(O)C2)cc1 (stereo not drawn) | > 30 µM |
| CN1CCN(c2nc(Nc3ccc(O)cc3)nc3ccccc23)CC1 | > 30 µM |
| Nc1ccn([C@@H]2O[C@H](CO)[C@@H](O)[C@H]2O)c(=O)n1 [CYTIDINE] | > 30 µM |
| O=C(Nc1cccc(C2=NCCN2)c1)Nc1cccc(C2=NCCN2)c1 [IMIDOCARB] | > 30 µM |
| CN(C)c1ccc(C(O)(c2ccc(N(C)C)cc2)c2ccc(N(C)C)cc2)cc1 [METHYLROSANILINE] | > 30 µM |

Each compound was assayed on Toxoplasma gondii (assay: MMV: A total of 100ul of inoculum was added to each well (parasite/cell ratio, ~10:1; final volume, 200 ul). Six hours after inoculation, nonadherent parasites were removed, and 100 ul of complete DMEM (1% penicillin-streptomycin, 3% FBS) supplemented with inhibitors at different concentrations (2-fold serial dilutions starting from 30 uM) was added to all except the negative-control wells. Positive controls, consisting of pyrimethamine (PYR) and sulfadiazine (SDZ) (20-mg/ml stocks in DMSO), were tested at a 2mg/ml final concentration. Each test was performed in triplicate.). Settings: 6 h.
Assay type: functional, organism-based

| SMILES | IC50 |
| --- | --- |
| O=C(Nc1ccc(Cl)c(Cl)c1)Nc1ccc(Cl)c(Cl)c1 | > 30 µM |
| COc1ccc(Nc2nc(N/N=C/c3ccc(O)cc3)nc(Nc3ccc([N+](=O)[O-])cc3)n2)cc1 | > 30 µM |
| N=c1n(CCN2CCCCC2)c2ccccc2n1CC(=O)c1ccc(Cl)c(Cl)c1 | > 30 µM |
| Nc1nc(Nc2cccc(F)c2)nc2ccccc12 | 29 µM |
| COc1ccc(-c2nc(N3CCN(C(=O)C4CCCCC4)CC3)c3c4c(sc3n2)CCCC4)cc1 | > 30 µM |
| O=C(NC1CCN(Cc2ccccc2)CC1)c1cc2nc(-c3ccc(Cl)s3)cc(C(F)(F)F)n2n1 | > 30 µM |
| Cc1sc(NC(=O)c2ccccc2)c(C(c2cccs2)N2CCN(c3ccccc3)CC2)c1C (stereo not drawn) | > 30 µM |
| Cc1sc(NC(=O)c2ccco2)c(C(c2cccnc2)N2CCC(Cc3ccccc3)CC2)c1C (stereo not drawn) | > 30 µM |
| COc1cc(C(=O)Nc2nc3c(cc4c5c(cccc53)CC4)s2)cc(OC)c1OC | > 30 µM |
| COc1ccc(CCN2C(=O)c3[nH]nc(-c4cc(Cl)c(C)cc4O)c3C2c2ccccc2F)cc1 (stereo not drawn) | > 30 µM |
| O=C(NNc1cc(N2CCCC2)nc(N2CCCC2)n1)c1ccccc1 | > 30 µM |
| COC(=O)c1ccc(Cl)c2c1C1C=CCC1C(c1cccc3ccccc13)N2 (stereo not drawn) | > 30 µM |
| O=C(CCc1ccccc1)c1ccccc1OCC(O)CN1CCCCC1 (stereo not drawn) | > 30 µM |
| OC1=C2C(=Nc3ccccc3SC2c2ccccc2)c2ccccc21 (stereo not drawn) | > 30 µM |
| COc1cc(C(=O)Nc2ccc(-c3nc4ccccc4[nH]3)cc2)cc(OC)c1OC | > 30 µM |
| CCOc1ccc(N2C(N)=NC(N)=NC2(C)C)cc1 | > 30 µM |
| COc1cccc(Nc2nc(N)c3ccccc3n2)c1 | 28.1 µM |
| COC(=O)c1ccc(C2C3=C(O)CC(c4ccc(F)cc4)CC3=Nc3ccccc3N2C(=O)c2ccccc2)cc1 (stereo not drawn) | > 30 µM |
| O=C(CCl)NCCOc1ccc(Cl)cc1Cl | > 30 µM |
| Oc1ccc(-c2nc(-c3ccc4oc5ccc(-c6[nH]c(-c7ccc(O)cc7)nc6-c6ccccc6)cc5c4c3)c(-c3ccccc3)[nH]2)cc1 | > 30 µM |
| CCOc1ccc(CN2CCN(CC(O)COc3ccc(OCC(O)CN4CCN(Cc5ccc(OCC)cc5)CC4)cc3)CC2)cc1 (stereo not drawn) | > 30 µM |
| CCCCNc1nc(NC(C)(C)C)nc(NC(C)(C)C)n1 | > 30 µM |
| COc1ccc(CCn2c(=N)c(C(=O)NCc3cccnc3)cc3c(=O)n4cccc(C)c4nc32)cc1 | > 30 µM |
| CC(=O)c1sc(NC(=O)Nc2ccc(C)cc2C)nc1C | > 30 µM |
| Cn1c(C(=O)c2cccc3ccccc23)nc2ccccc21 | > 30 µM |
| COc1ccc(Nc2cc(C)nc(NCc3ccccc3)n2)cc1 | > 30 µM |
| Oc1ccc2ccccc2c1CNc1nc2ccccc2[nH]1 | > 30 µM |

| SMILES | IC50 |
| --- | --- |
| O=C(Nc1ccc(-c2nc3ccccc3[nH]2)cc1)c1ccc(Cl)c(Cl)c1 | > 30 µM |
| O=C1c2ccc3c4c(ccc(c24)C(=O)N1CCCCO)C(=O)N(CCCCO)C3=O | > 30 µM |
| OCCNc1nc(Nc2ccc(Cl)c(Cl)c2)nc2ccccc12 | > 30 µM |
| Nc1ccc(-c2nc3cc(Oc4ccc(Oc5ccc6[nH]c(-c7ccc(N)cc7)nc6c5)cc4)ccc3[nH]2)cc1 | > 30 µM |
| CCOC(=O)c1cnc2ccc(OC)cc2c1Nc1ccc(N2CCN(C)CC2)cc1 | > 30 µM |
| Cc1cc(N(C)C)nc(Nc2ccc(NC(=O)Nc3ccccc3)cc2)n1 | > 30 µM |
| COc1ccc(C(=O)C(CCC(CNC(C)(C)C)C(=O)c2ccc(OC)cc2)CNC(C)(C)C)cc1 (stereo not drawn) | 8.23 µM |
| COc1cc(C(=O)ON=C(N)Cc2cccc3ccccc23)cc(OC)c1OC | > 30 µM |
| CN1C=C(c2ccc3ccccc3n2)C(c2c[nH]c3ccccc23)c2ccccc21 (stereo not drawn) | > 30 µM |
| Oc1c(C(Nc2ccccn2)c2cccc(Oc3ccccc3)c2)ccc2cccnc12 (stereo not drawn) | > 30 µM |
| COc1cc(-c2nc(-c3ccccc3)c(-c3ccccc3)[nH]2)cc(OC)c1O | > 30 µM |
| Cc1ccc(Nc2nc(N)c3ccccc3n2)cc1Cl | > 30 µM |
| OC(CNC1CCCCC1)Cn1c2ccc(I)cc2c2cc(I)ccc21 (stereo not drawn) | > 30 µM |
| CCc1ccc(CNCC(O)c2ccccc2)cc1 (stereo not drawn) | > 30 µM |
| CCn1c2c(c(=N)c3c1CCC3)CCCC2 | > 30 µM |
| COc1cc(CNCCc2ccc(Cl)cc2)cc(OC)c1O | > 30 µM |
| Cc1ccc2c(C)nc(Nc3nc(C)cc(-c4ccccc4)n3)nc2c1 | > 30 µM |
| CCOc1ccc(Nc2ccnc3cc(Cl)ccc23)cc1 | > 30 µM |
| Oc1ccc(Br)cc1CN1CCN(Cc2ccc(Cl)cc2)CC1 | 14.5 µM |
| Cc1ccc(C)c(-c2csc(Nc3ccc(C)c(C)c3)n2)c1 | > 30 µM |
| CCOC(=O)c1cnc2ccc(OC)cc2c1NCc1ccccc1 | > 30 µM |
| CCCn1c(=N)c(C(=O)NC2CCCCC2)cc2c(=O)n3cccc(C)c3nc21 | > 30 µM |
| CC(C)(C)c1ccc(C2CC3=Nc4ccccc4N(C(=O)c4ccccc4Cl)C(c4ccc(F)cc4)C3=C(O)C2)cc1 (stereo not drawn) | > 30 µM |
| CN1CCN(c2nc(Nc3ccc(O)cc3)nc3ccccc23)CC1 | > 30 µM |
| Nc1ccn([C@@H]2O[C@H](CO)[C@@H](O)[C@H]2O)c(=O)n1 [CYTIDINE] | > 30 µM |
| O=C(Nc1cccc(C2=NCCN2)c1)Nc1cccc(C2=NCCN2)c1 [IMIDOCARB] | > 30 µM |
| CN(C)c1ccc(C(O)(c2ccc(N(C)C)cc2)c2ccc(N(C)C)cc2)cc1 [METHYLROSANILINE] | > 30 µM |
